Reference: patent US8338368B2 (priority 2005, dated 2012)
Where two headings read alike, the source gives them in different places. Blank lines part the entries; values can stand above or below the substance they belong to. Ends that are not written are not given here.

Key:
[1] = pH 7
Glucagon Receptor = Glucagon Receptor (Homo sapiens, UniProt P47871); experiment: Functional assay, cAMP synthesis (luciferase reporter), glucagon receptor
GLP-1 Receptor = GLP-1 Receptor (Homo sapiens, UniProt P43220); experiment: cell-based
Chain of GLP-1 Receptor (P43220 24-463, species assumed): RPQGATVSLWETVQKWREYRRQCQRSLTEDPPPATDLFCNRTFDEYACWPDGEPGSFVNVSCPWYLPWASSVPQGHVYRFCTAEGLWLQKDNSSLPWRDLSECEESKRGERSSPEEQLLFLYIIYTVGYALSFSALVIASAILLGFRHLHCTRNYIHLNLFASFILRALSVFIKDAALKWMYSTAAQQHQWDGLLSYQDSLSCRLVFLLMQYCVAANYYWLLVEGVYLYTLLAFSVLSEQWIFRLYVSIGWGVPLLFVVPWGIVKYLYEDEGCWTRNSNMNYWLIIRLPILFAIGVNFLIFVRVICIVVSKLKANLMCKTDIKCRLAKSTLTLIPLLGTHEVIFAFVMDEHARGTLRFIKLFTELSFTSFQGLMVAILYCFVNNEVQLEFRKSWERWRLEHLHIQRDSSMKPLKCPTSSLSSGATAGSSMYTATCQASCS

Chain of Glucagon Receptor (P47871 26-477): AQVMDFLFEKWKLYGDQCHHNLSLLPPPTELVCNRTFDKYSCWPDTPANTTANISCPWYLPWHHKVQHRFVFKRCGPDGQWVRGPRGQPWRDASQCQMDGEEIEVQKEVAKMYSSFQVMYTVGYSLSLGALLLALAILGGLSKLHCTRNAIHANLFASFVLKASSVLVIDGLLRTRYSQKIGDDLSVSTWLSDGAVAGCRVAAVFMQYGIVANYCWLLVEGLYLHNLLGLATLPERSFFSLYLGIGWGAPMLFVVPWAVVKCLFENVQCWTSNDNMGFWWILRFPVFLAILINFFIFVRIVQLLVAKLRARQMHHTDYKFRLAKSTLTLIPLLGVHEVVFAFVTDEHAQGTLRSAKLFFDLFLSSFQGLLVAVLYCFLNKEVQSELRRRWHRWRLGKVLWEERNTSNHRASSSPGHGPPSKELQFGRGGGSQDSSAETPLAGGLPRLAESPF

Substance: Glucagon Cys^17 Mal-PEG-5K [Glucagon, Cys17PEG5K]
Percent Soluble [1]: 94%

EC50 (Glucagon Receptor; read-out: cAMP Induction Glucagon Receptor EC50, Table 3 (pegylated analogs), HEK293 cells co-transfected with glucagon receptor and CRE-luciferase, 5 h at 37° C.): 0.1 ± 0.05 nM
Substance: Glucagon Cys^24 Maleimido, PEG-3.4K-dimer [Glucagon C24 Dimer]

EC50 (Glucagon Receptor): 0.84 ± 0.4 nM
Substance: HSQGTFTSDYSRYLDSRRAKDFVQWLMNT [Glucagon R12 K20]

EC50 (GLP-1 Receptor): 0.41 ± 0.24 nM
EC50 (Glucagon Receptor): 0.81 ± 0.49 nM
Substance: HSQGTFTSDYSRYLDSRRAQDFVQWLMNK [Glucagon R12 K29]
